# Measurements reported in patent publication US20240043404A1 (AbbVie Inc., priority 2009, published 2024).
# pEC50: −log10 of the molar value.
# System: RS4;11 cells
# Test: RS4;11 cell viability assay (CellTiter Glo);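 also: acute lymphoblastic leukemia line RS4,11, EC50 derived from percentage of viable cells after treatment relative to untreated controls, cell killing taken as a measure of Bcl-2 inhibition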
# Format: cell-based, human
# Settings: Homo sapiens, RS4-11, 48 h, 50,000 cells per well, 10% human serum, 48 hours; read-out: RS4; 11 EC50 Values
# Procedure: The acute lymphoblastic leukemia (ALL) cell line RS4;11 was used as the primary human cell line to assess the cellular activity of Bcl-2 selective agents in vitro and their efficacy in vivo.
# Cell cytotoxicity EC50 values were assessed using CellTiter Glo (Promega) according to the manufacturer's recommendations. The EC50 values were determined as a percentage of viable cells following treatment compared to the untreated control cells.
row,SMILES,pEC50
1,"CC1(C)CCC(CN2CCN(c3ccc(C(=O)NS(=O)(=O)c4cnc(OCC5(F)CCOCC5)c(C(F)(F)F)c4)c(Oc4cnc5[nH]ccc5c4)c3)CC2)=C(c2ccc(Cl)cc2)C1 [Example 208, 4-(4-{[2-(4-chlorophenyl)-4,4-dimethylcyclohex-1-en-1-yl]methyl}piperazin-1-yl)-N-{[6-[(4-fluorotetrahydro-2H-pyran-4-yl)methoxy]-5-(trifluoromethyl)pyridin-3-yl]sulfonyl}-2-(1H-pyrrolo[2,3-b]pyridin-5-yloxy)benzamide]",6.92
2,"CC1(C)CCC(CN2CCN(c3ccc(C(=O)NS(=O)(=O)c4ccc(NC[C@@H]5CCN(C6COC6)C5)c([N+](=O)[O-])c4)c(Oc4cnc5[nH]ccc5c4)c3)CC2)=C(c2ccc(Cl)cc2)C1 [Example 209, 4-(4-{[2-(4-chlorophenyl)-4,4-dimethylcyclohex-1-en-1-yl]methyl}piperazin-1-yl)-N-{[3-nitro-4-({[(3S)-1-oxetan-3-ylpyrrolidin-3-yl]methyl}amino)phenyl]sulfonyl}-2-(1H-pyrrolo[2,3-b]pyridin-5-yloxy)benzamide]",8.35
3,"CO[C@H]1CC[C@H](COc2ncc(S(=O)(=O)NC(=O)c3ccc(N4CCN(CC5=C(c6ccc(Cl)cc6)CC(C)(C)CC5)CC4)cc3Oc3cnc4[nH]ccc4c3)cc2Cl)CC1 [Example 210, Trans-N-({5-chloro-6-[(4-methoxycyclohexyl)methoxy]pyridin-3-yl}sulfonyl)-4-(4-{[2-(4-chlorophenyl)-4,4-dimethylcyclohex-1-en-1-yl]methyl}piperazin-1-yl)-2-(1H-pyrrolo[2,3-b]pyridin-5-yloxy)benzamide]",7.22
4,"CO[C@H]1CC[C@@H](COc2ncc(S(=O)(=O)NC(=O)c3ccc(N4CCN(CC5=C(c6ccc(Cl)cc6)CC(C)(C)CC5)CC4)cc3Oc3cnc4[nH]ccc4c3)cc2Cl)CC1 [Example 211, Cis-N-({5-chloro-6-[(4-methoxycyclohexyl)methoxy]pyridin-3-yl}sulfonyl)-4-(4-{[2-(4-chlorophenyl)-4,4-dimethylcyclohex-1-en-1-yl]methyl}piperazin-1-yl)-2-(1H-pyrrolo[2,3-b]pyridin-5-yloxy)benzamide]",6.51
5,"CC1(C)CCC(CN2CCN(c3ccc(C(=O)NS(=O)(=O)c4ccc(N[C@H]5CCN(C6COC6)C5)c([N+](=O)[O-])c4)c(Oc4cnc5[nH]ccc5c4)c3)CC2)=C(c2ccc(Cl)cc2)C1 [Example 212, 4-(4-{[2-(4-chlorophenyl)-4,4-dimethylcyclohex-1-en-1-yl]methyl}piperazin-1-yl)-N-[(3-nitro-4-{[(3S)-1-oxetan-3-ylpyrrolidin-3-yl]amino}phenyl)sulfonyl]-2-(1H-pyrrolo[2,3-b]pyridin-5-yloxy)benzamide]",7.89
6,"COCCOCCN1CCOC(CNc2ccc(S(=O)(=O)NC(=O)c3ccc(N4CCN(CC5=C(c6ccc(Cl)cc6)CC(C)(C)CC5)CC4)cc3Oc3cnc4[nH]ccc4c3)cc2[N+](=O)[O-])C1 (stereo not shown) [Example 213, 4-(4-{[2-(4-chlorophenyl)-4,4-dimethylcyclohex-1-en-1-yl]methyl}piperazin-1-yl)-N-({4-[({4-[2-(2-methoxyethoxy)ethyl]morpholin-2-yl}methyl)amino]-3-nitrophenyl}sulfonyl)-2-(1H-pyrrolo[2,3-b]pyridin-5-yloxy)benzamide]",8.21
7,"CC1(C)CCC(CN2CCN(c3ccc(C(=O)NS(=O)(=O)c4ccc(NCC5CN(CC#N)CCO5)c([N+](=O)[O-])c4)c(Oc4cnc5[nH]ccc5c4)c3)CC2)=C(c2ccc(Cl)cc2)C1 (stereo not shown) [Example 214, 4-(4-{[2-(4-chlorophenyl)-4,4-dimethylcyclohex-1-en-1-yl]methyl}piperazin-1-yl)-N-{[4-({[4-(cyanomethyl)morpholin-2-yl]methyl}amino)-3-nitrophenyl]sulfonyl}-2-(1H-pyrrolo[2,3-b]pyridin-5-yloxy)benzamide]",8.36
